Legend:
KAIMRC1 cells = assay: CellTiter-Glo assay, KAIMRC1; format: cell-based; settings: Homo sapiens, 24 h, read-out: IC50 Breast Cancer KAIMRC1
Procedure: (§1) To validate the anti-proliferative activity of the imidazole derivatives, the compounds were tested against several cancer cell lines, which included breast cancer (MDA-MB-231, KAIMRC1, and KAIMRC2), colorectal cancer (HCT8), and acute promyelocytic leukemia cells (HL60). KAIMRC1 was isolated from a person with stage II-B breast cancer and is ER+/PR+ and HER2-. In comparison, KAIMRC2 was isolated from a person with metastasized breast cancer and is a triple-negative (ER-/PR-, and HER2-) tumor cell line.
(§2) The CellTiter-Glo assay (Promega™, Madison, WI, USA) was used to evaluate imidazole and oxazolone derivatives cytotoxicity against various cancer cell lines; MCF-10A, HL60, MDA-MB-231, and HCT8, purchased from ATCC, USA, except KAIMRC1 and KAIMRC2, which were isolated, established, and characterized in the core laboratory facility KAIMRC, Riyadh, Saudi Arabia. The cells were seeded in white 96-well plates at a density of 5 × 10^3 cells/well in a 100 μL of growth medium with various concentrations of each compound ranging from 0 to 250 µM. Cells were incubated at 37 °C for 24 h. Plates were equilibrated at RT for 30 min. A quantity of 100 µL of CellTiter-Glo reagent was added to each well and mixed for 2 min on an orbital shaker. Plates were incubated for 10 min at RT before measuring the luminescence using an Envision plate reader (Perkin Elmer). Half-maximal inhibitory concentration IC50 values (μM) were calculated for each imidazole derivative from the dose–response curve. The cytotoxic effect at a concentration <10 µM was considered strongly active and from 11 to 100 µM was considered moderately active, whereas above 100 µM was deemed non-active. Mitoxantrone was utilized as a positive control. Experiments were performed in triplicates.

KAIMRC2 cells = assay: CellTiter-Glo assay, KAIMRC2; format: cell-based; settings: Homo sapiens, 24 h, read-out: IC50 Breast Cancer KAIMRC2
Procedure: as §1, §2

[1] = tested on: tubulin in MDA-MB-231 cells; assay: Tubulin staining and imaging (microtubular network); format: cell-based, human; settings: 48 h; for effect on the microtubular network / tubulin: MDA-MB-231, 15.6 and 31 µM
Source text: An established cytotoxic mechanism of action of some nitrogenous heteroaromatic compounds is through the inhibition of tubulin. Normal microtubule function is essential during mitosis for mitotic spindle formation to allow chromatid separation, without which cell replication would cease. In addition, microtubules are critical for maintaining the cytoskeletal integrity of normal cells. Currently used cytotoxic anti-neoplastic classes of drugs such as the taxanes and vinca alkaloids also either inhibit microtubule assembly or disassembly, thus preventing mitosis from occurring. Therefore, we investigated the effects of compounds 8 and 9 on the modulation of microtubule function by assessing their effect on tubulin.
MDA- MB 231 cells were treated with compounds 8 and 9 at two concentrations, 15.6 and 31.25 µM, for 48 h. The cells were stained with tubulin tracker™ Green (Cat #T34075) in HBSS for 30 min and nucleus stain HOECHST33342 (blue) for 5 min. The samples were imaged with Zeiss laser-scanning 780 microscopes.
Following the standard protocol, tubulin and microtubule-associated proteins (MAPs) were developed, accompanied by two cycles of polymerization and depolymerization. MDA-MB231 cells were treated with compounds 8 and 9 at concentrations of 31.25 and 15.6 µM for 48 h. Subsequently, the media was replaced with HBSS, and the MDA-MB231 cells were stained with tubulin tracker™ Green 51(Cat #T34075) for 30 min and HOECHST33342 for 5 min. The Zeiss laser-scanning 780 microscope was used for imaging.

HCT8 cells = assay: CellTiter-Glo assay, HCT8; format: cell-based; settings: Homo sapiens, HCT-8, 24 h, read-out: IC50 Colorectal Cancer HCT8
Procedure: as §1, §2

MDA-MB-231 cells = assay: ApoTox-Glo triplex assay (caspase 3/7); format: cell-based, human; settings: MDA-MB-231, 24 h, various concentrations
Source text: The ApoTox-Glo® triplex assay was utilized to further evaluate the effect of compound 9 on the MDA-MB-231 cancer cell viability, cytotoxicity, and apoptosis. This assay employs a luminogenic peptide substrate for caspase 3/7 to measure caspase activity, which is used as a marker for apoptosis within the cells. […] However, since this assay was time-dependent, the level of cytotoxicity (Figure 7B) determined, in this case, was not a true representative of the compound’s cytotoxic potential; it is reasonable to say that at the endpoint of apoptosis (Figure 7C), a heightened level of cytotoxicity would be observed.
The Promega ApoTox-Glo® triplex assay was conducted as described by the manufacturer. Briefly, the cells were incubated at 37 °C for 12 h and then treated for 24 h with various concentrations of compound 9 [29, 30]. Next, 100 µL of the Viability and Cytotoxicity Reagent was added to each well and briefly mixed on an orbital shaker. Plates were incubated at 37 °C for 30 min, and the fluorescence was measured at the following two-wavelength sets—400Ex/505Em (Viability) and 485Ex/520 Em (Cytotoxicity)—using the Envision plate reader (Perkin Elmer). […] Finally, to determine the level of apoptosis, the luminescence associated with caspase 3/7 activation was measured using an Envision plate reader (Perkin Elmer).

Row | Compound | IC50 (KAIMRC1 cells) [µM] | IC50 (KAIMRC2 cells) [µM] | microtubule inhibition ([1]; MDA-MB-231, 31 µM) | effect on the microtubular network / tubulin [1] | IC50 (HCT8 cells) [µM] | caspase 3/7-mediated apoptosis (MDA-MB-231 cells)
1 | COc1cccc(/C=C2\N=C(c3ccccc3)N(Nc3ccc([N+](=O)[O-])cc3[N+](=O)[O-])C2=O)c1 [Compound 9] | 22.2 | 27.1 | nearly complete microtubule inhibition | interfered with the microtubular network | 22.1 | induced caspase 3-/7-mediated apoptosis in a dose-dependent manner
2 | O=C1/C(=C/c2ccccc2)N=C(c2ccccc2)N1Nc1ccc([N+](=O)[O-])cc1[N+](=O)[O-] [Compound 8] | 10.2 | 31.6 |  | no effect on tubulin | 33.1 | 

— paper PMC9029529, “Distinct Mechanisms of Cytotoxicity in Novel Nitrogenous Heterocycles: Future Directions for a New Anti-Cancer Agent” (Molecules, 2022)
